Where a name gives a salt, the structure may show the parent alone.
How the values were obtained:
renal SN12C = assay: NCI screen cytotoxicity, renal SN12C; type: cell-based; conditions: Homo sapiens, 48 h, read-out: cytotoxicity (GI50) renal SN12C
melanoma UACC-62 = assay: NCI screen cytotoxicity, melanoma UACC-62; type: cell-based; conditions: Homo sapiens, UACC-62, 48 h, read-out: cytotoxicity (GI50) melanoma UACC-62
colon HCT-116 = assay: NCI screen cytotoxicity, colon HCT-116; type: cell-based; conditions: Homo sapiens, HCT-116, 48 h, read-out: cytotoxicity (GI50) colon HCT-116
prostate DU-145 = assay: NCI screen cytotoxicity, prostate DU-145; type: cell-based; conditions: Homo sapiens, DU-145, 48 h, read-out: cytotoxicity (GI50) prostate DU-145
lung HOP-62 = assay: NCI screen cytotoxicity, lung HOP-62; type: cell-based; conditions: Homo sapiens, HOP-62, 48 h, read-out: cytotoxicity (GI50) lung HOP-62
SV40 DNA = assay: DNA unwinding assay; type: biochemical; conditions: for ability to unwind/intercalate into free DNA: range of tested concentrations 1-100 μM
[1] = system: all human cancer cell lines successfully tested; assay: NCI screen, mean graph midpoint; type: cell-based; conditions: 48 h, read-out: cytotoxicity (GI50) MGM
human recombinant Top1 = target: T1, human recombinant Top1 (Homo sapiens, UniProt P11387); assay: Top1-mediated DNA cleavage assay; type: biochemical; conditions: for Top1 cleavage: semiquantitative, relative Top1 inhibitory potency vs compounds 1 and 2, 117-bp DNA fragment; for concentration dependence of DNA cleavage band intensity: 0.1-100 μM, side-by-side comparison (Figure 4)
T1 sequence (P11387 1-765): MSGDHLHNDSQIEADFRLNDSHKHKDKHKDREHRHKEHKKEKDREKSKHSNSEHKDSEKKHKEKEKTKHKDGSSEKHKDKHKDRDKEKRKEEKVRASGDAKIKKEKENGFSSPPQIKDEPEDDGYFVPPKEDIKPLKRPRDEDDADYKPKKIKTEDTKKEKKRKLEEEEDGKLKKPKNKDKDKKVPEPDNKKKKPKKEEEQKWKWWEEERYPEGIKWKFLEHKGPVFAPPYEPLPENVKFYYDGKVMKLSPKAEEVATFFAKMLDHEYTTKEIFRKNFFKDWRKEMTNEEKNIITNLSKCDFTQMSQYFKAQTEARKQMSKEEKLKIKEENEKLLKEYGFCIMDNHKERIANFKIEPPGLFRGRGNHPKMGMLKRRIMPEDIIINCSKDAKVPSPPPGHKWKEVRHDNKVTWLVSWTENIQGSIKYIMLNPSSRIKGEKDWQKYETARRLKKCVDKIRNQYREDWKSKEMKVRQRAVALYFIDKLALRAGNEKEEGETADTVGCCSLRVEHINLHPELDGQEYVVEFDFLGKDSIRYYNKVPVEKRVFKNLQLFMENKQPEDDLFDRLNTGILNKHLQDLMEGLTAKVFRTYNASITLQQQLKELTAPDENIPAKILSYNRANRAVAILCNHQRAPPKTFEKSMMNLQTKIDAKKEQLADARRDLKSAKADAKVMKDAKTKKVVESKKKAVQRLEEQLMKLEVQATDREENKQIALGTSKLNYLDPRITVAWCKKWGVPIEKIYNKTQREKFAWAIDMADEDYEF

Top1 cleavage (human recombinant Top1)	Structure (SMILES)	GI50 [1] [nM]	other results
++	O=C1c2cccnc2-c2c1c1ccccc1c(=O)n2CCCn1ccnc1 [Compound 28, 7-Aza-5,6-dihydro-6-(3-(1H-imidazol-1-yl)propyl)-5,11-dioxo-11H-indeno[1,2-c]isoquinoline]		
++	COc1cc2c3c(n(CCCn4ccnc4)c(=O)c2cc1OC)-c1ncccc1C3=O [Compound 29, 7-Aza-5,6-dihydro-6-(3-(1H-imidazol-1-yl)propyl)-2,3-dimethoxy-5,11-dioxo-11H-indeno[1,2-c]isoquinoline]		concentration dependence of DNA cleavage band intensity (human recombinant Top1): concentration-dependent increase of intensity of DNA cleavage bands
+	O=C1c2cccnc2-c2c1c1ccccc1c(=O)n2CCCNCCO [Compound 30, 7-Aza-5,6-dihydro-6-(3-(2-hydroxyethylamino)propyl)-5,11-dioxo-11H-indeno[1,2-c]isoquinoline Hydrochloride]	1290	
+++	CN(C)CCCn1c2c(c3ccccc3c1=O)C(=O)c1ccccc1-2 [Compound 33, reference compound]		
+++	CN(C)CCCn1c2c(c3ccc([N+](=O)[O-])cc3c1=O)C(=O)c1ccccc1-2 [Compound 35]	9770	GI50 (renal SN12C): 4170 nM; GI50 (melanoma UACC-62): 7080 nM; GI50 (colon HCT-116): 6460 nM

Further lines, the compound ahead of its results:

Structure (SMILES)	Top1 cleavage (human recombinant Top1)	GI50 [1] [nM]	other results
CC[C@@]1(O)C(=O)OCc2c1cc1n(c2=O)Cc2cc3ccccc3nc2-1 [Compound 1, camptothecin]			GI50 (renal SN12C): 20 nM; GI50 (melanoma UACC-62): 10 nM; GI50 (colon HCT-116): 30 nM; GI50 (prostate DU-145): 10 nM; GI50 (lung HOP-62): 10 nM
O=C1c2cccnc2-c2[nH]c(=O)c3cc([N+](=O)[O-])ccc3c21 [Compound 17, 7-Aza-5,6-dihydro-3-nitro-5,11-dioxo-11H-indeno[1,2-c]isoquinoline]			ability to unwind/intercalate into free DNA (SV40 DNA): allow intercalation into DNA in the absence of Top1
CN(C)CCCn1c2c(c3ccccc3c1=O)C(=O)c1cccnc1-2 [Compound 18, 7-Aza-5,6-dihydro-6-(3-dimethylaminopropyl)-5,11-dioxo-11H-indeno[1,2-c]isoquinoline Hydrochloride]	+++	1780	
COc1cc2c3c(n(CCCN(C)C)c(=O)c2cc1OC)-c1ncccc1C3=O [Compound 19, 7-Aza-5,6-dihydro-6-(3-dimethylaminopropyl)-2,3-dimethoxy-5,11-dioxo-11H-indeno[1,2-c]isoquinoline Hydrochloride]	+++	4500	inhibition of Top1-mediated DNA relaxation (SV40 DNA; at highest tested concentration, 100 μM): completely inhibits the Top1-mediated DNA relaxation
CN(C)CCCn1c2c(c3ccc([N+](=O)[O-])cc3c1=O)C(=O)c1cccnc1-2 [Compound 20, 7-Aza-5,6-dihydro-6-(3-dimethylaminopropyl)-3-nitro-5,11-dioxo-11H-indeno[1,2-c]isoquinoline Hydrochloride]		1860	
O=C1c2cccnc2-c2c1c1ccccc1c(=O)n2CCCN1CCOCC1 [Compound 21, 7-Aza-5,6-dihydro-6-(3-morpholinopropyl)-5,11-dioxo-11H-indeno[1,2-c]isoquinoline Hydrochloride]		15500	
COc1cc2c3c(n(CCCN4CCOCC4)c(=O)c2cc1OC)-c1ncccc1C3=O [Compound 22, 7-Aza-5,6-dihydro-6-(3-morpholinopropyl)-2,3-dimethoxy-5,11-dioxo-11H-indeno[1,2-c]isoquinoline Hydrochloride]	++		concentration dependence of DNA cleavage band intensity (human recombinant Top1): concentration-dependent increase of intensity of DNA cleavage bands; ability to unwind/intercalate into free DNA (SV40 DNA): inability to unwind/intercalate into DNA
O=C1c2cccnc2-c2c1c1ccc([N+](=O)[O-])cc1c(=O)n2CCCN1CCOCC1 [Compound 23, 7-Aza-5,6-dihydro-6-(3-morpholinopropyl)-3-nitro-5,11-dioxo-11H-indeno[1,2-c]isoquinoline Hydrochloride]	+++		
COc1cc2c3c(n(CCCNCCO)c(=O)c2cc1OC)-c1ncccc1C3=O [Compound 31, 7-Aza-5,6-dihydro-6-(3-(2-hydroxyethylamino)propyl)-2,3-dimethoxy-5,11-dioxo-11H-indeno[1,2-c]isoquinoline Hydrochloride]		290	concentration dependence of DNA cleavage band intensity (human recombinant Top1): behave similarly to 19
COc1cc2c3c(n(CCCN)c(=O)c2cc1OC)-c1ncccc1C3=O [Compound 32, 7-Aza-5,6-dihydro-6-(3-aminopropyl)-2,3-dimethoxy-5,11-dioxo-11H-indeno[1,2-c]isoquinoline Hydrochloride]		2090	concentration dependence of DNA cleavage band intensity (human recombinant Top1): behave similarly to 19
